# Reference: patent US8697699B2, “Imidazopyrazine SYK inhibitors” (Gilead Connecticut, Inc., priority 2008, dated 2014)
# Structures can show the parent of a compound that is named as a salt.
smiles,measurement,value
"COc1ccc(Nc2nc(-c3cccc(C(=O)Nc4ccc(C(=O)O)cc4C)c3)cn3ccnc23)cc1OC (as salt: hydrochloride) [Example 2, 4-(3-(8-(3,4-dimethoxyphenylamino)imidazo[1,2-a]pyrazin-6-yl)benzamido)-3-methylbenzoic acid hydrochloride salt]",melting point,188 to 215 °C
"COc1ccc(Nc2nc(-c3cccc(C(=O)Nc4ccc(C(=O)OCc5ccccc5)cc4)c3)cn3ccnc23)cc1OC [Example 3, benzyl 4-(3-(8-(3,4-dimethoxyphenylamino)imidazo[1,2-a]pyrazin-6-yl)benzamido)benzoate]",melting point,154 to 160 °C
